Assay results as given in US9089509B2, “Method of treatment of age-related macular degeneration” (YEDA RESEARCH AND DEVELOPMENT CO., LTD., priority 2006, dated 2015).

Experiments:
[1] = tested on: neural stem/progenitor cells (NPCs) co-cultured with microglia; test: Co-culture of GFP-expressing neural progenitor cells with treated microglia, neurogenesis (GFP+/βIII-T+ cells); format: cell-based, mouse
Method: Coronal sections (2 mm thick) of tissue containing the subventricular zone of the lateral ventricle were obtained from the brains of adult C57Bl/6J mice. The tissue was minced and then incubated for digestion at 37° C., 5% CO2 for 45 min in Earle's balanced salt solution containing 0.94 mg/ml papain (Worthington, Lakewood, N.J.) and 0.18 mg/ml of L-cysteine and EDTA. After centrifugation at 110×g for 15 min at room temperature, the tissue was mechanically dissociated by pipette trituration. Cells obtained from single-cell suspensions were plated (3500 cells/cm^2) in 75-cm^2 Falcon tissue-culture flasks (BD Biosciences, San Diego, Calif.), in neural stem/progenitor cell (NPC)-culturing medium [Dulbecco's modified Eagles's medium (DMEM)/F12 medium (Gibco/Invitrogen, Carlsbad, Calif.) containing 2 mM L-glutamine, 0.6% glucose, 9.6 μg/ml putrescine, 6.3 ng/ml progesterone, 5.2 ng/ml sodium selenite, 0.02 mg/ml insulin, 0.1 mg/ml transferrin, 2 μg/ml heparin (all from Sigma-Aldrich, Rehovot, Israel), fibroblast growth factor-2 (human recombinant, 20 ng/ml), and epidermal growth factor (human recombinant, 20 ng/ml; both from Peprotech, Rocky Hill, N.J.)]. Spheres were passaged every 4-6 days and replated as single cells. Green fluorescent protein (GFP)-expressing NPCs were obtained as previously described (Pluchino et al., 2003).
Brains from neonatal (P0-P1) C57Bl/6J mice were stripped of their meninges and minced with scissors under a dissecting microscope (Zeiss, Stemi DV4, Germany) in Leibovitz-15 medium (Biological Industries, Kibbutz Beit Ha-Emek, Israel). After trypsinization (0.5% trypsin, 10 min, 37° C./5% CO2), the tissue was triturated. The cell suspension was washed in culture medium for glial cells [DMEM supplemented with 10% fetal calf serum (FCS; Sigma-Aldrich, Rehovot), L-glutamine (1 mM), sodium pyruvate (1 mM), penicillin (100 U/ml), and streptomycin ([…])] and cultured at 37° C./5% CO2 in 75-cm^2 Falcon tissue-culture flasks (BD Biosciences) coated with poly-D-lysine (PDL) (10 mg/ml; Sigma-Aldrich, Rehovot) in borate buffer (2.37 g borax and 1.55 g boric acid dissolved in 500 ml sterile water, pH 8.4) for 1 h, then rinsed thoroughly with sterile, glass-distilled water. Half of the medium was changed after 6 h in culture and every 2nd day thereafter, starting on day 2, for a total culture time of 10-14 days. […]

[2] = tested on: microglia; test: CD11c expression and morphology in primary culture of mouse microglia; format: cell-based; details: microglia, 10 ng/ml (FIGS. 8A-8D)
Method: Brains from neonatal (P0-P1) C57Bl/6J mice were stripped of their meninges and minced with scissors under a dissecting microscope (Zeiss, Stemi DV4, Germany) in Leibovitz-15 medium (Biological Industries, Kibbutz Beit Ha-Emek, Israel). After trypsinization (0.5% trypsin, 10 min, 37° C./5% CO2), the tissue was triturated. The cell suspension was washed in culture medium for glial cells [DMEM supplemented with 10% fetal calf serum (FCS; Sigma-Aldrich, Rehovot), L-glutamine (1 mM), sodium pyruvate (1 mM), penicillin (100 U/ml), and streptomycin ([…])] and cultured at 37° C./5% CO2 in 75-cm^2 Falcon tissue-culture flasks (BD Biosciences) coated with poly-D-lysine (PDL) (10 mg/ml; Sigma-Aldrich, Rehovot) in borate buffer (2.37 g borax and 1.55 g boric acid dissolved in 500 ml sterile water, pH 8.4) for 1 h, then rinsed thoroughly with sterile, glass-distilled water. Half of the medium was changed after 6 h in culture and every 2nd day thereafter, starting on day 2, for a total culture time of 10-14 days. Microglia were shaken off the primary mixed brain glial cell cultures (150 rpm, 37° C., 6 h) with maximum yields between days 10 and 14, seeded (10^5 cells/ml) onto PDL-pretreated 24-well plates (1 ml/well; Corning, N.Y., N.Y.), and grown in culture medium for microglia [RPMI-1640 medium (Sigma-Aldrich, Rehovot) supplemented with 10% FCS, L-glutamine (1 mM), sodium pyruvate (1 mM), β-mercaptoethanol ([…]), penicillin (100 U/ml), and streptomycin ([…])]. The cells were allowed to adhere to the surface of a PDL-coated culture flask (30 min, 37° C./5% CO2), and non-adherent cells were rinsed off.
Cover slips from co-cultures of NPCs and mouse microglia were washed with PBS, fixed as described above, treated with a permeabilization/blocking solution containing 10% FCS, 2% bovine serum albumin, 1% glycine, and 0.1% Triton X-100 (Sigma-Aldrich, Rehovot), and stained with a combination of mouse anti-[…] (anti-βIII-T) isoform C-terminus antibodies (1:500; Chemicon, Temecula, Calif.), rat anti-CD11b (MAC1; 1:50; BD—Pharmingen, Franklin Lakes, N.J.) and hamster anti-CD11c (1:100; eBioscience, San Diego, Calif.). To capture the microglia FITC- or Cy3-conjugated Bandeiraea simplicifolia isolectin B4 (IB-4; 1:50; Sigma-Aldrich, Rehovot) was used. To detect expression of human Aβ anti-Aβ (human amino-acid residues 1-17) (mouse, clone 6E10; Chemicon) was used.
On the basis of our previous findings, we suspected that the switch from a CD11b^+/CD11c^−/IGF-1^− to a CD11b^+/CD11c^+/IGF-I^+ microglial phenotype in the Cop-1 vaccinated Tg-AD mice might be attributable to IL-4. We examined this possibility in vitro. […] In contrast, the expression of CD11c induced by IL-4 was not transient. Quantification of the ability of IL-4 to induce CD11c expression even after the microglia were pretreated with Aβ is shown in FIG. 4D.
Thus, upregulation of CD11c on bone marrow derived myeloid cells by […] will allow the cells to reach injured sites and induce beneficial effect.

| Substance | effect of microglia activated by aggregated Aβ(1-40) on neurogenesis and NPC number ([1]; aggregated Aβ(1-40) 5 μM, 48 h pre-incubation, co-culture 10 days) | counteracting the negative effect of Aβ-activated microglia on NPC survival and differentiation ([1]; cytokine 10 ng/ml added for 48 h after 48 h aggregated Aβ(1-40) 5 μM) | numbers of GFP+/βIII-T+ cells in co-cultures of NPCs with activated microglia ([1]; microglia activated with 10 ng/ml, co-culture 10 days, vs microglia-free control) | time to peak of CD11c upregulation after activation [2] [days] |
| --- | --- | --- | --- | --- |
| Aβ(1-40): β-amyloid peptide fragment 1-40, aggregated | blocked neurogenesis and decreased the number of NPCs |  |  |  |
| IFN-γ: recombinant mouse IFN-γ |  | failed to reverse their negative effect on neurogenesis | dramatic increase | 2 to 3 |
